Measurements reported in ChEMBL document CHEMBL5727152, “Ethyldiamine orexin receptor antagonists” (2018).

Target: T1, Orexin receptor type 2 (Homo sapiens, UniProt O43614)
T1 sequence (O43614 whole entry): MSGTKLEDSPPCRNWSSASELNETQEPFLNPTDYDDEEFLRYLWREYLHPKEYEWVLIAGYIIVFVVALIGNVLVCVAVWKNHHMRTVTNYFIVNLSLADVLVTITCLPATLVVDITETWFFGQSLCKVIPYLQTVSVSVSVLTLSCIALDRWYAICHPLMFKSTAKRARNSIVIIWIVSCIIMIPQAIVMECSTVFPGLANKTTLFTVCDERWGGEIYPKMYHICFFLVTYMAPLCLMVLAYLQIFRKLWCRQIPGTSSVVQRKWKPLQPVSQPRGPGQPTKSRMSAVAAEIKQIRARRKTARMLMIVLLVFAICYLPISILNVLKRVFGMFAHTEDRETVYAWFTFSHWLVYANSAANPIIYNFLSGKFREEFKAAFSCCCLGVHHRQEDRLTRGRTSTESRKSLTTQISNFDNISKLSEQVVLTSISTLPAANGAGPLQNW
Assay: FLIPR Ca2+ Flux Assay: In a typical experiment the OX1 and OX2 receptor antagonistic activity of the compounds of the present invention was determined in accordance with the following experimental method. For intracellular calcium measurements, Chinese hamster ovary (CHO) cells expressing the rat orexin-1 receptor or the human orexin-2 receptor, are grown in Iscove's modified DMEM containing 2 mM L-glutamine, […], 1% hypoxanthine-thymidine supplement, 100 U/ml penicillin, 100 μg/ml streptomycin and 10% heat-inactivated fetal calf serum (FCS). The cells are seeded at 20,000 cells/well into Becton-Dickinson black 384-well clear bottom sterile plates coated with poly-D-lysine. All reagents were from GIBCO-Invitrogen Corp. The seeded plates are incubated overnight at 37° C. and 5% CO2. Ala-6,12 human orexin-A as the agonist is prepared as a 1 mM stock solution in 1% bovine serum albumin (BSA) and diluted in assay buffer (HBSS containing 20 mM HEPES, 0.1% BSA and 2.5 mM probenecid, pH7.4) for use in the assay at a final concentration of 70 pM. Test compounds are prepared as 10 mM stock solution in DMSO, then diluted in 384-well plates, first in DMSO, then assay buffer. On the day of the assay, cells are washed 3 times with 100 μl assay buffer and then incubated for 60 min (37° C., 5% CO2) in 60 μl assay buffer containing 1 μM Fluo-4AM ester, 0.02% pluronic acid, and 1% BSA. […]
Format: cell-based

Which IC50 does the source give for `CN(CCN(CC(F)(F)F)C(=O)c1ccccc1-n1nccn1)c1cc(C#N)ccn1` here?
Its IC50 is 0.113 µM.
